Laboratory results as given in ChEMBL document CHEMBL1158170, “Synthesis, characterization, antioxidant activity and DNA-binding studies of two rare earth(III) complexes with naringenin-2-hydroxy benzoyl hydrazone ligand” (Eur J Med Chem, 2008).

Columns and labels:
[1] = Antioxidant activity at pH 7.4 by hydroxyl radical scavenging assay; assay type: functional
DNA [2] = experiment: Binding affinity to calf thymus DNA by fluorescence spectroscopy; assay type: nucleic-acid assay; settings: Bos taurus
DNA [3] = experiment: Binding affinity to calf thymus DNA by electronic absorption spectroscopy; assay type: nucleic-acid assay; settings: Bos taurus

Compound	IC50 [1] [mM]	Kq (DNA [2]) [×10⁴ /M]	Kb (DNA [3]) [×10⁴ /M]
OC[C@@H](O)[C@@H](O)[C@H](O)[C@H](O)CO [MANNITOL]	9.6	–	–
O=C(N/N=C1\CC(c2ccc(O)cc2)Oc2cc(O)cc(O)c21)c1ccccc1O (stereo not drawn)	–	0.93	1.6
